From patent US10307404B1, “Ocular formulations for drug-delivery to the posterior segment of the eye” (priority 2013, dated 2019)
Values joined by “and” are separate entries in the source; they are usually repeats but may differ in a detail not shown here. Identical values can stand only once. Like-named read-outs stand apart in the source and are kept apart here.

Columns and labels:
[1] = Ocular toxicology study, twice daily 0.3% ophthalmic gel drop: ocular tissue concentrations, electroretinograms; assay type: in vivo, Dutch-Belted rabbits; details: 0.3% gel drop formulations with and without benzylalkonium chloride
From the text: (§1) Retinal function was normal in all test article and vehicle treated groups during full-field electroretinograms performed in rabbits.

KDR (VEGFR-2) = KDR (VEGFR-2) (Homo sapiens, UniProt P35968); experiment: In vitro inhibition of tyrosine kinases; assay type: biochemical; details: 300 nM (170.67 ng/mL)
[2] = parameters: species or system Dutch-Belted rabbits; details: rabbit, in vivo
Experimental: The ocular solution of Compound-I comprising cyclodextrin was prepared and tested in different groups of animals.

[3] = Ocular toxicology study, twice daily 0.3% Tris-based suspension, 30 days; assay type: in vivo, Dutch-Belted rabbits
[4] = parameters: species or system Dutch-Belted rabbits and beagle dogs; details: Dutch-belted, beagle, rabbit, dog, in vivo
From the text: Animals that received topical ocular administration of the tromethamine-based suspension were able to tolerate up to higher level of the active agent concentration in the formulation, as compared to equimolar formulations of the sodium phosphate-based Gel Drop.
(§2) Overall, the combination of decreased corneal exposure and corresponding improved ocular tolerability, while simultaneously maintaining or promoting drug delivery to the posterior segment target tissues, along with improved physicochemical stability, will provide greater benefit to patients compared to the ophthalmic Gel Drop formulation.
as §1

[5] = 1- to 5-day PK, topical ocular Compound-I formulations of Table 8A, 30 μL bilateral dose; assay type: in vivo, Dutch Belted rabbits
Experimental: On day 1, Groups 1, 2, 4-6, 8, 10, 11, 13, 15, and 17 received one dose (q.d.) for either one (1) or four (4) days.
Peripheral retina and peripheral choroid samples were assayed only for Groups 1-8, 12, 14, and 16 per study protocol.

[6] = 5-day PK, topical ocular Compound-I in hydroxypropyl-β-cyclodextrin solutions, 30 μL bilateral dose; assay type: in vivo, Dutch-Belted rabbits; details: for Average Concentration, Central Retina: LLOQ = 0.0218 μM
Experimental: All doses were administered with ±1 hour of the scheduled dose time, except on day 1 for Groups 1, 4, and 10. The first dose on day 1 was administered at 12:00 PM, and the second dose (for Groups 1 and 10) was administered approximately 4 hours after. This was due to delayed arrival of formulations. All other dosing for these groups was as scheduled. On day 1, Groups 4-8, and 11-12 received one dose (q.d.) for four (4) days. On days 1 through 4, Groups 1-3, and 9-10 received b.i.d. dosing approximately 8 hours apart for four (4) days.
Ocular sampling occurred one hour following the first daily dose on day 5 for all groups, except Groups 5b and 6b, where ocular sampling occurred 24 hours after the first daily dose on day 4.
Blood samples for plasma collection were obtained just prior to scheduled euthanasia for all animals. […] Cornea, central retina, and central choroid samples from groups 1-12 were assayed. Aqueous humor, peripheral retina, and peripheral choroid samples were not assayed.

[7] = Corneal and choroid exposure compared between formulations (topical ocular dosing); assay type: in vivo, Dutch-belted rabbits
From the text: as §2

[8] = 30-day topical ocular tolerability of cyclodextrin-based solutions; assay type: in vivo
HUVECs = experiment: Inhibition of VEGF-stimulated mitogenesis in HUVECs; assay type: cell-based; details: Homo sapiens, HUVEC
[9] = Group 2 q.d., 1 hr post day 5 morning dose
[10] = Group 2 q.d., 8 hr post day 5 morning dose
[11] = Group 2 q.d., 24 hr post day 5 morning dose
[12] = Group 3 b.i.d., 1 hr post day 5 morning dose
[13] = Group 3 b.i.d., 24 hr post day 5 morning dose
[14] = Group 4 q.d., 1 hr post day 5 morning dose
[15] = Group 5 q.d., 24 hr post day 1 dose
[16] = Group 6 q.d., 1 hr post day 5 morning dose
[17] = Group 6 q.d., 8 hr post day 5 morning dose
[18] = Group 6 q.d., 24 hr post day 5 morning dose
[19] = Group 7 b.i.d., 1 hr post day 5 morning dose
[20] = Group 11 q.d., 24 hr post day 5 morning dose, n = 1

Sequence of KDR (VEGFR-2) (P35968 20-1356): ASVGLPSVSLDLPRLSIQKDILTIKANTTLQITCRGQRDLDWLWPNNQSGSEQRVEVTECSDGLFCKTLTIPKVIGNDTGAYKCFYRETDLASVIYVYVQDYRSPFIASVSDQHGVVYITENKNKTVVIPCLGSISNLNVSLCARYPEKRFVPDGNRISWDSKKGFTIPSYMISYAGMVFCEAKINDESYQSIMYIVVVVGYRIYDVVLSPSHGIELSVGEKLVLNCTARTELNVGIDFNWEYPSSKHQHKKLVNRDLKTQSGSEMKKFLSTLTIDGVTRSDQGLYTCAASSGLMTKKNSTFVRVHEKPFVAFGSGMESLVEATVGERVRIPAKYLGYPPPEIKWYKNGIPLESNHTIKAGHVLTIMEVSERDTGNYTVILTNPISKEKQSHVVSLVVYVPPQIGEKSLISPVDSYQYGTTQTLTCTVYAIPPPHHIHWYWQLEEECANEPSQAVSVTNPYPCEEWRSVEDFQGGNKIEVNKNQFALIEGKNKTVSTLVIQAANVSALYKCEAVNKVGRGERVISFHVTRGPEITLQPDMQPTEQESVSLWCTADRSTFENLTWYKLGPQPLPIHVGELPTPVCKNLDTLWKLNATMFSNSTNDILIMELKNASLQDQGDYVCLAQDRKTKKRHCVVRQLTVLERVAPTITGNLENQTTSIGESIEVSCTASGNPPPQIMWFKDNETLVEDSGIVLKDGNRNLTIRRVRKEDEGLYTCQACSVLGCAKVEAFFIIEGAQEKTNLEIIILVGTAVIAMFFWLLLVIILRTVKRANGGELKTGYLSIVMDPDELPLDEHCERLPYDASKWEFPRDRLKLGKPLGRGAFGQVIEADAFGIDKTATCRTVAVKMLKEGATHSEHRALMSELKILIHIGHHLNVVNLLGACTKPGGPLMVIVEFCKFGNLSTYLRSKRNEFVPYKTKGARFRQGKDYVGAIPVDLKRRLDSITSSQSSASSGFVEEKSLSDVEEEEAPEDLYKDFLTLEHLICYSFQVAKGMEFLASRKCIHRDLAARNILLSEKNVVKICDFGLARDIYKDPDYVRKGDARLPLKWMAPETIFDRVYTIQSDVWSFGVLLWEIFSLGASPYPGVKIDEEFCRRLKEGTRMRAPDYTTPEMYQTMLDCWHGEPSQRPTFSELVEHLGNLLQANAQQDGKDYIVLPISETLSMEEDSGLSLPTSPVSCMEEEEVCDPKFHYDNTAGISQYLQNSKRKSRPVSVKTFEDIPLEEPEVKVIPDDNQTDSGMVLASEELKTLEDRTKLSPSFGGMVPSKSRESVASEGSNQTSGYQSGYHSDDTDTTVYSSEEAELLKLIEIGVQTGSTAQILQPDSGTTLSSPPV

For `Cl.NC(=O)c1c(OCc2c(F)cc(Br)cc2F)nsc1NC(=O)NCCCCN1CCCC1` [Compound-I, 3-[(4-bromo-2,6-difluorophenyl)methoxy]-5-[[[[4-(1-pyrrolidinyl)butyl]amino]carbonyl]amino]-4-isothiazolecarboxamide hydrochloride], the “Mean ocular tissue concentration, peripheral retina” value [1] was 0.150 to 0.3091 µM, the VEGFR-2 kinase function (KDR (VEGFR-2)) was “completely inhibited” and the tolerability [2] was “well-tolerated”. The “eyes at microscopic evaluation” value ([3]; 0.3% w/v Tris-based suspension twice daily for 30 days) was “considered normal”, the “tolerability, clinical ophthalmic examinations” value ([3]; rabbit, in vivo) was “well tolerated” and the “cornea concentration above which ocular side effects were more consistently observed” value [4] was “exceeded 100 μM”. For the same compound, the concentration at 24 h ([5]; Dutch Belted, rabbit, cornea, topical, 30 μL bilateral, Group 2 q.d., 24 hr post day 5 morning dose) was 29.7 µM, the “Average Concentration, Peripheral Choroid” value ([5]; Group 1 q.d., 0.5 hr post day 1 dose, LLOQ = 0.0349 μM) was “<LLOQ” and the “Average Concentration, Central Retina” value ([5]; Group 1 q.d., 1 hr post day 1 dose, LLOQ = 0.0181 μM) was “<LLOQ”. The “Average Concentration, Peripheral Choroid” value ([5]; Group 1 q.d., 1 hr post day 1 dose, n = 1) was “*0.0856 μM”, the “Average Concentration, Central Retina” value ([5]; Group 1 q.d., 24 hr post day 1 dose, LLOQ = 0.0181 μM) was “<LLOQ” and the concentration at 24 h ([5]; Group 1 q.d., 24 hr post day 1 dose, read-out: Average Concentration, Cornea) was 6.94 µM. The “Average Concentration, Aqueous Humor” value [5, 9] was 0.00996 µM, the “Average Concentration, Peripheral Choroid” value [5, 9] was 0.737 µM and the “Average Concentration, Central Choroid” value ([5]; Group 2 q.d., 1 hr post day 5 morning dose, n = 1) was “*0.207 μM”. The concentration at 24 h ([5]; Group 2 q.d., 1 hr post day 5 morning dose, read-out: Average Concentration, Cornea) was 112 µM, the “Average Concentration, Aqueous Humor” value [5, 10] was 0.0165 µM and the “Average Concentration, Peripheral Choroid” value [5, 10] was 0.687 µM. The “Average Concentration, Central Choroid” value ([5]; Group 2 q.d., 8 hr post day 5 morning dose, n = 1) was “*0.237 μM”, the concentration at 24 h ([5]; Group 2 q.d., 8 hr post day 5 morning dose, read-out: Average Concentration, Cornea) was 32.7 µM and the “Average Concentration, Aqueous Humor” value [5, 11] was 0.00336 µM. For the same compound, the “Average Concentration, Peripheral Choroid” value [5, 11] was 1.14 µM, the “Average Concentration, Peripheral Retina” value [5, 11] was 0.380 µM and the “Average Concentration, Central Retina” value ([5]; Group 2 q.d., 24 hr post day 5 morning dose, LLOQ = 0.0181 μM) was “<LLOQ”. The “Average Concentration, Central Choroid” value ([5]; Group 2 q.d., 24 hr post day 5 morning dose, n = 1) was “*0.205 μM”, the “Average Concentration, Aqueous Humor” value [5, 12] was 0.0142 µM and the “Average Concentration, Central Choroid” value [5, 12] was 0.255 µM. The concentration at 24 h ([5]; Group 3 b.i.d., 1 hr post day 5 morning dose, read-out: Average Concentration, Cornea) was 151 µM, the “Average Concentration, Aqueous Humor” value [5, 13] was 0.00774 µM and the “Average Concentration, Peripheral Retina” value [5, 13] was 0.0597 µM. The concentration at 24 h ([5]; Group 3 b.i.d., 24 hr post day 5 morning dose, read-out: Average Concentration, Cornea) was 82.1 µM, the “Average Concentration, Aqueous Humor” value [5, 14] was 0.00996 µM and the “Average Concentration, Central Retina” value [5, 14] was 0.0431 µM. The “Average Concentration, Peripheral Choroid” value [5, 14] was 0.629 µM, the “Average Concentration, Peripheral Retina” value [5, 14] was 0.0883 µM and the concentration at 24 h ([5]; Group 4 q.d., 1 hr post day 5 morning dose, read-out: Average Concentration, Cornea) was 78.7 µM. For the same compound, the “Average Concentration, Aqueous Humor” value ([5]; Group 5 q.d., 0.5 hr post day 1 dose, LLOQ = 0.000903 μM) was “<LLOQ”, the “Average Concentration, Central Retina” value ([5]; Group 5 q.d., 0.5 hr post day 1 dose, LLOQ = 0.0181 μM) was “<LLOQ” and the “Average Concentration, Peripheral Choroid” value ([5]; Group 5 q.d., 0.5 hr post day 1 dose, LLOQ = 0.0349 μM) was “<LLOQ”. For the same compound, the concentration at 24 h ([5]; Group 5 q.d., 0.5 hr post day 1 dose, read-out: Average Concentration, Cornea) was 21.0 µM, the “Average Concentration, Peripheral Retina” value ([5]; Group 5 q.d., 1 hr post day 1 dose) was 0.0253 µM and the “Average Concentration, Peripheral Retina” value ([5]; Group 5 q.d., 2 hr post day 1 dose) was 0.0253 µM. The concentration at 24 h ([5]; Group 5 q.d., 8 hr post day 1 dose, read-out: Average Concentration, Cornea) was 7.74 µM, the “Average Concentration, Aqueous Humor” value [5, 15] was 0.00228 µM and the “Average Concentration, Peripheral Choroid” value [5, 15] was 0.116 µM. The “Average Concentration, Central Retina” value ([5]; Group 5 q.d., 24 hr post day 1 dose, LLOQ = 0.0181 μM) was “<LLOQ”, the “Average Concentration, Peripheral Retina” value ([5]; Group 5 q.d., 24 hr post day 1 dose, n = 1) was “*0.0103 μM” and the concentration at 24 h ([5]; Group 5 q.d., 24 hr post day 1 dose, read-out: Average Concentration, Cornea) was 2.43 µM. The “Average Concentration, Aqueous Humor” value [5, 16] was 0.00323 µM, the “Average Concentration, Central Choroid” value [5, 16] was 0.319 µM and the “Average Concentration, Central Retina” value [5, 16] was 0.0463 µM. For the same compound, the “Average Concentration, Peripheral Choroid” value [5, 16] was 0.311 µM, the “Average Concentration, Peripheral Retina” value [5, 16] was 0.0634 µM and the concentration at 24 h ([5]; Group 6 q.d., 1 hr post day 5 morning dose, read-out: Average Concentration, Cornea) was 21.8 µM. The “Average Concentration, Aqueous Humor” value [5, 17] was 0.00742 µM, the “Average Concentration, Central Retina” value [5, 17] was 0.0537 µM and the “Average Concentration, Peripheral Choroid” value [5, 17] was 0.257 µM. For the same compound, the concentration at 24 h ([5]; Group 6 q.d., 8 hr post day 5 morning dose, read-out: Average Concentration, Cornea) was 9.10 µM, the “Average Concentration, Aqueous Humor” value [5, 18] was 0.00122 µM and the “Average Concentration, Peripheral Choroid” value [5, 18] was 0.343 µM. The “Average Concentration, Peripheral Retina” value [5, 18] was 0.0533 µM, the concentration at 24 h ([5]; Group 6 q.d., 24 hr post day 5 morning dose, read-out: Average Concentration, Cornea) was 2.33 µM and the “Average Concentration, Aqueous Humor” value [5, 19] was 0.00648 µM. For the same compound, the “Average Concentration, Central Choroid” value [5, 19] was 0.514 µM, the “Average Concentration, Central Retina” value [5, 19] was 0.0469 µM and the “Average Concentration, Peripheral Choroid” value [5, 19] was 0.744 µM. The “Average Concentration, Peripheral Retina” value [5, 19] was 0.0819 µM, the “Average Concentration, Aqueous Humor” value [5, 20] was “*0.00205 μM” and the “Average Concentration, Central Choroid” value [5, 20] was “*0.179 μM”. For the same compound, the “Average Concentration, Central Retina” value [5, 20] was “*0.0185 μM”, the “Average Concentration, Central Choroid” value ([6]; Group 5a q.d., 1 hr after first daily dose on day 5, n = 1) was “*0.199 μM” and the “Average Concentration, Central Retina” value ([6]; Group 5b q.d., 24 hr after first daily dose on day 4) was “<LLOQ”. The “Average Concentration, Central Retina” value ([6]; Group 6b q.d., 24 hr after first daily dose on day 4) was “<LLOQ”, the “Average Concentration, Central Choroid” value ([6]; Group 6b q.d., 24 hr after first daily dose on day 4, n = 1) was “*0.218 μM” and the “Average Concentration, Central Choroid” value ([6]; Group 7 q.d., 1 hr after first daily dose on day 5, LLOQ = 0.174 μM) was “<LLOQ”. For the same compound, the “Average Concentration, Central Choroid” value ([6]; Group 8 q.d., 1 hr after first daily dose on day 5, n = 1) was “*0.210 μM”, the “Average Concentration, Central Choroid” value ([6]; Group 9 b.i.d., 1 hr after first daily dose on day 5, n = 1) was “*0.287 μM” and the “reduction in corneal concentrations versus equimolar Gel Drop” value ([7]; cyclodextrin-based solutions, 1 to 30 days dosing, Dutch-belted rabbits) was about 10 ×. For the same compound, the “clinical or histopathologic findings” value ([7]; ophthalmic solution, repeated topical ocular dosing, rabbits and dogs) was “free of untoward clinical or histopathologic findings”, the “target therapeutic exposure in the central choroid versus equimolar ophthalmic gel drop” value ([7]; ophthalmic solution, topical ocular dosing) was “equal or higher” and the “corneal concentrations, Gel Drop compared to Tris-based suspensions” value ([7]; rabbit, in vivo) was “fifty-fold to hundred-fold higher”. The “corneal concentrations, Gel Drop compared to cyclodextrin based solution” value ([7]; rabbit, in vivo) was “five-fold to fifteen-fold higher”, the “reduction of exposure (cornea)” value ([7]; suspension-based and cyclodextrin formulations) was 10-100 × and the “findings attributed to test-article or vehicle” value ([8]; 0.6% cyclodextrin-based solution, 30 days of topical ocular dosing) was “no untoward findings”. For the same compound, the “ocular toxicity, clinical ophthalmic or microscopic examinations” value ([8]; rabbit, in vivo) was “No overt ocular toxicity”, the tolerability ([8]; rabbit, in vivo) was “well tolerated” and the IC50 (HUVECs) was 14.1 nM and 0.008 µg/mL.
